Data set [1] is described as follows: Pharmacokinetic test in rats. It counts as in vivo. The note with it: rat; SD rats, male, oral gavage, 10 mg/kg, plasma. As for the experimental part:
SD rats were taken as test animals. Example 4, Example 15, and Comparative Example HRO761 were given by gavage. The drug concentrations in rat plasma at different time points were determined by LC-MS/MS to investigate the pharmacokinetic characteristics of Example 4, Example 15, and Comparative Example HRO761 in rats.
• Experimental drugs: Example 4, Example 15, and Comparative Example HRO761; • Animals: SD rats, male, 240-260 g, purchased from Shanghai Jihui Laboratory Animal Care Co.,Ltd.
An appropriate amount of Example 4, Example 15, and Comparative Example HRO761 was weighed and added to an appropriate amount of dimethyl sulfoxide, solutol, and saline (final solvent: 5% DMSO + 10% solutol + 85% saline). The mixture was vortexed and sonicated to prepare a 1.0 mg/mL dosing solution.
The rats in gavage groups (3 rats per group) of Example 4, Example 15, and Comparative Example HRO761 were administered by oral gavage after overnight fasting (dose: 10 mg/kg, administration volume: 10 mL/kg), and the rats were fed 4 h after administration.
0.2 mL of blood was collected from the animals before administration and at 0.083 h, 0.25 h, 0.5 h, 1 h, 2 h, 4 h, 6 h, 8 h, and 24 h after administration, and anticoagulated with sodium heparin. Blood samples were placed on ice after collection, and plasma was separated by centrifugation (centrifugation conditions: 8000 rpm, 5 min). The collected plasma was stored at -80°C before analysis.
The contents of Example 4, Example 15, and Comparative Example HRO761 in rat plasma after oral administration were determined by LC-MS/MS.
Based on the calculated concentrations of the compounds in plasma at different time points, the pharmacokinetic parameters of Example 4, Example 15, and Comparative Example HRO761 in rats were calculated using winnonlin software. The pharmacokinetic parameters of Example 4, Example 15, and Comparative Example HRO761 of the present disclosure are shown in Table 14.

A further data set deals with T1, WRN enzyme (Homo sapiens, UniProt Q14191).
T1 construct: host or cells: eukaryotic cells (not further specified)
T1 sequence (Q14191 whole entry): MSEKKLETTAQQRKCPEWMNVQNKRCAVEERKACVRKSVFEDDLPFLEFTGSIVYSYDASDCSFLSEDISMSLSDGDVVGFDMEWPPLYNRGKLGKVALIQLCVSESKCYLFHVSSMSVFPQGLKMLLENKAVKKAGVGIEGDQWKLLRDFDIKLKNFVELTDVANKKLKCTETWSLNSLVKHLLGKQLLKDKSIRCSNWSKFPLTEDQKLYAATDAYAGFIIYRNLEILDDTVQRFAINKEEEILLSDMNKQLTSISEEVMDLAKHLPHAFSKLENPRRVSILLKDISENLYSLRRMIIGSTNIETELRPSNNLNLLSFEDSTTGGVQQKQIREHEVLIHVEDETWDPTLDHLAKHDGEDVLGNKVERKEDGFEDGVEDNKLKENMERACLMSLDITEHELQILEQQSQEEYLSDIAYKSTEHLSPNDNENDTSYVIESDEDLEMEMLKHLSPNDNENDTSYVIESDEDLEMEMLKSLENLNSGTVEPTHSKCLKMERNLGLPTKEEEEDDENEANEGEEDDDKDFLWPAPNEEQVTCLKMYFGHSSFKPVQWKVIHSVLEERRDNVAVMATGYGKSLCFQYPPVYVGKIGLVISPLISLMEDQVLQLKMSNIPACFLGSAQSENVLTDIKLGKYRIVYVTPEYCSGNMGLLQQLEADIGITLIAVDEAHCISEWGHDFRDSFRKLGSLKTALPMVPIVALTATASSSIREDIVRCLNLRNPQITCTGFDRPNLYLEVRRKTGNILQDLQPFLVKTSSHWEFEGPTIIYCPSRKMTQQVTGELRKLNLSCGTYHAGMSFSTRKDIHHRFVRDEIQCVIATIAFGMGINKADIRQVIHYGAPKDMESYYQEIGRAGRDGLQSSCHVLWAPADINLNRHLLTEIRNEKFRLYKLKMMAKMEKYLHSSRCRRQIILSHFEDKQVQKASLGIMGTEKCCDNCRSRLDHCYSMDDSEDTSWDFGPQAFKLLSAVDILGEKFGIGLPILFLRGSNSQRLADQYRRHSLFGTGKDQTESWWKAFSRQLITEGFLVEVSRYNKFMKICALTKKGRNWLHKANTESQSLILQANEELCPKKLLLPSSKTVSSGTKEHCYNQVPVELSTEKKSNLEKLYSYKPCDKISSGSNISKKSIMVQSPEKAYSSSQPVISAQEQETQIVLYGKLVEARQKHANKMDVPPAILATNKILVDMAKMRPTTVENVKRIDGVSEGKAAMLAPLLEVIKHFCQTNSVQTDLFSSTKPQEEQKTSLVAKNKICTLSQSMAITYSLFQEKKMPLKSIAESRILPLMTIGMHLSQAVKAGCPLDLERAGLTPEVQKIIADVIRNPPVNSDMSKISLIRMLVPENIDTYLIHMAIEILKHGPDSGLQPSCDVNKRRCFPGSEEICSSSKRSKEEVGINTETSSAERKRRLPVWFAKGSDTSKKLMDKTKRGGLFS
Put plainly: WRN helicase activity assay (unwinding of BHQ2/Cy5-labelled double-stranded DNA, fluorescence). The note with it: Table 3, 30 min pre-incubation, 30 min reaction. The format is biochemical. The source says:
The WRN enzyme used in the experiment has a His-TEV tag at the N-terminus and is expressed in eukaryotic cells with a purity of 90%. The two single-stranded DNAs used for assay are labeled with BHQ2 and Cy5, respectively. When two fluorophores are in close proximity (when the DNA is in a double-stranded state), no fluorescence signal is detected due to the quenching effect. WRN has helicase activity, which enables the unwinding of double-stranded DNA to form single strands, thereby generating a fluorescence signal.
Two labeled single-stranded DNA strands were annealed to form double-stranded DNA. Annealing buffer: 12 mM Tris (pH 8.0), 300 mM NaCl, 12 mM MgCl2, 2 mM DTT. Annealing program: 95°C, 5 min.
2× WRN enzyme (2 nM) and 2× substrate (100 nM double-stranded DNA, 1000 nM capture DNA, 100 µM ATP) were prepared using buffer (20 mM Bicine, 10 mM KCl, 1 mM MgCl2, 0.005% BSG, 1 mM TCEP, 0.1% F-127, pH 7.5). The test compound was dissolved in DMSO to 10 mM and was gradient-diluted using a 96-well V-bottom plate. 0.5 µL of compound was added to 25 µL of 2× WRN enzyme and incubated at room temperature for 30 min. 25 µL of 2× substrate was added, and the reaction was carried out at room temperature for 30 min. Detection was performed using a microplate reader with an excitation wavelength of 620 nm and an emission wavelength of 685 nm.
The concentration-effect curve was fitted using GraphPad Prism 8 software, and the compound concentration for 50% inhibition (IC50) was calculated. The percentage inhibition for each compound concentration was first calculated, and then the concentration-effect curve was fitted using the "log(inhibitor) vs. normalized response -- Variable slope" equation in GraphPad Prism 8 software to obtain the IC50. [formula] • Positive control: 25 µL 2× WRN enzyme + 0.5 µL DMSO + 25 µL 2× substrate • Negative control: 25 µL 2× buffer + 0.5 µL DMSO + 25 µL 2× substrate

Data set [2] can be described thus: Pharmacokinetic test in mice. The format is in vivo. The note with it: mouse; CD-1 mice, male, oral gavage, 10 mg/kg, plasma. Here is the method:
CD-1 mice were taken as test animals. Example 4, Example 22, and Comparative Example HRO761 were given by gavage. The drug concentrations in mouse plasma at different time points were determined by LC-MS/MS to investigate the pharmacokinetic characteristics of the compounds of the present disclosure in mice.
• Experimental drugs: Example 4, Example 22, and Comparative Example HRO761; • Animals: CD-1 mice, male, 24-25 g, purchased from Shanghai Jihui Laboratory Animal Care Co.,Ltd.
An appropriate amount of Example 4, Example 22, and Comparative Example HRO761 was weighed and sequentially added to an appropriate amount of dimethyl sulfoxide, solutol, and saline (final solvent: 5% DMSO + 10% solutol + 85% saline). The mixture was vortexed and sonicated to prepare a 1.0 mg/mL dosing solution.
Three mice in gavage groups of Example 4, Example 22, and Comparative Example HRO761 were administered by oral gavage after overnight fasting (dose: 10 mg/kg, administration volume: 10 mL/kg), and the mice were fed 4 h after administration.
0.04 mL of blood was collected from the animals before administration and at 0.083 h, 0.25 h, 0.5 h, 1 h, 2 h, 4 h, 6 h, 8 h, and 24 h after administration, and anticoagulated with sodium heparin. Blood samples were placed on ice after collection, and plasma was separated by centrifugation (centrifugation conditions: 8000 rpm, 5 min). The collected plasma was stored at -80°C before analysis.
LC-MS/MS was used to determine the content of the test compound in mouse plasma after intragastric administration.
Based on the calculated concentrations of the compounds in plasma at different time points, the pharmacokinetic parameters of Example 4, Example 22, and Comparative Example HRO761 in mice were calculated using winnonlin software. The pharmacokinetic parameters of Example 4, Example 22, and Comparative Example HRO761 of the present disclosure are shown in Table 13.

For orientation: AUC(0-inf) means total exposure, with the tail of the curve extrapolated. Read a high AUC(0-inf) as more exposure. A word on the Cmax: it is the peak of the concentration-time curve. The IC50 is the point on the concentration scale where inhibition reaches its midpoint. Low readings indicate higher potency, high ones lower potency. In data set [1], `CCc1c(N2CCN(C(=O)c3ncnc(C)c3O)CC2)c(=O)c2nn(C3=CCOCC3)nc2n1CC(=O)Nc1cc(F)c(C(F)(F)F)cc1Cl` [Example 15] yielded an AUC(0-inf) of 46400 ng·h/mL and a Cmax of 9020 ng/mL. The same molecule came in with an IC50 against WRN enzyme of 70.2 nM.

In data set [2], `CCc1c(N2CCN(C(=O)c3ncnc(C)c3O)CC2)c(=O)c2nn(C3=CCOCC3)nc2n1CC(=O)Nc1cc(F)c(Cl)cc1Cl` [Example 22] yielded an AUC(0-inf) of 83400 ng·h/mL and a Cmax of 24600 ng/mL. This molecule showed an IC50 on WRN enzyme of 72.1 nM.

With `CCc1c(N2CCN(C(=O)c3ncnc(C)c3O)CC2)c(=O)c2nn(C3=CCOCC3)nc2n1CC(=O)Nc1ccc(C(F)(F)F)cc1Cl` [Example 4], in data set [2], the AUC(0-inf) was determined as 51500 ng·h/mL and the Cmax came to 24800 ng/mL. In data set [1], this molecule returned a total exposure AUC(0-inf) of 170000 ng·h/mL and a Cmax of 19200 ng/mL. The molecule further had an IC50 against WRN enzyme of 60.9 nM.

Values taken from patent EP4692088A1, “COMPOUND ACTING AS WRN HELICASE INHIBITOR” (SHANGHAI JEYOU PHARMACEUTICAL CO., LTD., priority 2023, dated 2024).
